# According to patent US7846891B2, “Self-assembling peptides for regeneration and repair of neural tissue” (Massachusetts Institute of Technology, priority 2003, dated 2010):
# “Also recorded” adds a separate entry of the source.
# Key:
# [1] = system: optic tract within the superior colliculus (brain wound); experiment: Optic tract transection (knife wound in superior colliculus) in P2 hamster pups; histology and CT-B axon tracing; type: in vivo, Syrian hamster
# Protocol: Animals and surgery. Syrian hamster pups at two days of age (P2) were anesthetized with whole-body cooling. […] At surgery, 10 animals were treated by injection into the brain wound of 10 microliters of 1% SAP RADA16-I (n-RADARADARADARADA-c; SEQ ID NO: 1) prepared by dissolving peptide in sterile water. The overlying scalp was then closed with tissue glue (cyanoacrylic). The pups were returned to the cage, placed under a heat lamp, and monitored until they recovered. After recovery the hamster pups were returned to their mother. Control animals with the same lesion included 3 with isotonic saline injection (10 microliters), and 27 earlier cases with knife cuts and no injection.
# (§1) Axon tracing method. Four days before the animals were sacrificed they were anesthetized with intraperitoneal injection of Valium (50 mg/kg) and Nembutal (10 mg/kg). […]. This was accomplished with the aid of glass micropipette (tip diameter ˜10 μm) attached to a General Valve Pico Spritzer as previously described. The subjects were then returned to their cages, under a heat lamp, and monitored until they recovered.
# Histology. The animals were sacrificed with an overdose of anesthesia 4 days after the intraocular injection of CT-B and were then perfused transcardially with PBS buffer (pH 7.4) followed by 2% paraformaldehyde in 0.1M phosphate buffer (pH 7.4). The brains and eyes were removed and postfixed at 4° C. until they sank. The tissue was cut on a cryostat in 30 micron coronal sections. These sections were mounted directly on gelatin-coated slides. The mounted sections were first air dried, then washed with PBS (pH 7.4) three times at 10 min intervals, and then preblocked in PBS (pH 7.4) containing 2% Triton X-100, 2% normal rabbit serum, and 2.5% bovine serum albumin for 30 min at room temperature. The slides were then incubated with goat anti-cholaragenoid (List Biological Lab, Inc.) (1:8000 dilution)+2% Triton X-100, 2% normal rabbit serum, and 2.5% bovine serum albumin for 48 hours at room temperature. Slides were then washed in PBS (pH 7.4) for three rounds of 10 min each. Sections were incubated with fluorescent donkey anti-IgG antibody Alexa-488 (secondary antibody from Molecular Probes, Inc.) (1:200 dilution) for 1 her 30 min at room temperature in a light protected chamber. Slides were then washed in PBS (pH 7.4) 4 to 5 times at 5 min intervals. The slides were then cover-slipped with Dabco. The slides were visualized through a fluorescent microscope and pictures were taken with a Kodak DCS 620 digital camera. […]
# [2] = system: brachium of the superior colliculus (brain wound); experiment: Visually elicited orienting (head turning) test after transection of the brachium of the superior colliculus in adult hamsters; type: in vivo, Syrian hamster; details: BSC transected at 2 months of age, 10 ul of 1% SAP at surgery, testing from day 44-46, listed as SAP
# Protocol: Thus functional recovery of severed axons can be assessed by evaluating visually elicited head turning at various times after infliction of a lesion that severs the brachium, such as those described in Example 1.
# To determine the extent of return of vision the animals are tested for visually elicited orienting responses. The identity of the animal is unknown to the investigator during testing periods. Before behavioral testing, the animals are habituated to the testing environment. Videotaping of the response is accomplished by the use of an overhead Sony digital video (DV) recorder. Some of the trials are simultaneously taped from the side with another Sony DV recorder. Later the video is analyzed frame-by-frame on a 21-inch monitor. All of the cameras are time synchronized. The first type of analysis is to determine if the trial is valid or invalid. Once a trial is judged as valid it is analyzed frame by frame, which enables us to plot the position of the stimulus with respect to the initial head location. The angle of the head at the beginning of the turning movement is set to zero. […]
# The y axis represents the number of times the animal turned toward the stimulus during testing, expressed as a percentage of the number of times the stimulus was presented on the side that had received the lesion and SAP treatment. […]
# [3] = system: brachium of the superior colliculus (brain wound); experiment: Histology and CT-B axon tracing after transection of the brachium of the superior colliculus in adult hamsters; type: in vivo, Syrian hamster; details: BSC transection; for axon growth through the lesion site (CT-B tracing) / tissue reconnection / repair at the lesion site (histology): 10 ul of 1% SAP, section 2 months after injection
# Protocol: as §1
# Histology. The animals were sacrificed with an overdose of anesthesia 4 days after the intraocular injection of CT-B and were then perfused transcardially with PBS buffer (pH 7.4) followed by 2% paraformaldehyde in 0.1M phosphate buffer (pH 7.4). The brains and eyes were removed and postfixed at 4° C. until they sank. The tissue was cut on a cryostat in 30 micron coronal sections. These sections were mounted directly on gelatin-coated slides. The mounted sections were first air dried, then washed with PBS (pH 7.4) three times at 10 min intervals, and then preblocked in PBS (pH 7.4) containing 2% Triton X-100, 2% normal rabbit serum, and 2.5% bovine serum albumin for 30 min at room temperature. The slides were then incubated with goat anti-cholaragenoid (List Biological Lab, Inc.) (1:8000 dilution)+2% Triton X-100, 2% normal rabbit serum, and 2.5% bovine serum albumin for 48 hours at room temperature. Slides were then washed in PBS (pH 7.4) for three rounds of 10 min each. Sections were incubated with fluorescent donkey anti-IgG antibody Alexa-488 (secondary antibody from Molecular Probes, Inc.) (1:200 dilution) for 1 her 30 min at room temperature in a light protected chamber. Slides were then washed in PBS (pH 7.4) 4 to 5 times at 5 min intervals. The slides were then cover-slipped with Dabco. The slides were visualized through a fluorescent microscope and pictures were taken with a Kodak DCS 620 digital camera.
# At the time of surgery, animals were treated by injection of 10 ul of 1% SAP RAD16-I into the brain wound. Animals were allowed to recover from surgery and maintained under standard laboratory conditions.
# . Axon tracing and histology were performed as described above to allow visualization of the lesion site and assessment of axon regrowth. FIG. 10 is a parasagittal section of the dorsal midbrain of a hamster. Rostral is left and caudual is right. The section is from an 8 month old hamster and was taken 2 months following infliction of the lesion. The bright yellow in the middle of the picture that extends from the lower left to the upper right is in the middle of the lesion site. Retinal projections show as gray. Note the axons extending through the center of the cut. […] In addition, the tissue has reconnected at the lesion site in a similar manner to that observed in the younger animals.
# [4] = Self-assembly of SAP on addition to CSF in vitro; type: physicochemical; details: data not shown
substance,measurement,setting,value
n-RADARADARADARADA-c [RADA16-I],axon regrowth across the lesion (cholera-toxin labeling),"[1]; 1 month hamster, lesion at P2 injected with 10 microliters of 1% SAP",axons have extended from a location proximal to the lesion to a distal location
same,scar at lesion site (bright-field image),[1]; 2 months after lesion and injection of SAP,minimal nature of the scar
same,re-innervation of the caudal SC by the severed retinofugal axons,"[1]; lesion at P2, 10 ul of 1% SAP",partial re-innervation of the caudal SC
same,tissue reconnection across the lesion (histology),"[1]; lesion at P2, 10 ul of 1% SAP injected into brain wound, survival 1, 3, 6, 30 or 60 days, vs saline and no-injection controls (χ^2=34.8, df (1), p<<0.001)",the tissue appears to have reconnected across the lesion at all survival times
same,behavioral recovery (response to visual stimulus),[2],significant behavioral recovery; also recorded: return of functional vision in six animals
same,re-innervation of the SC by the severed retinofugal axons,[3]; 10 ul of 1% SAP at surgery,partial re-innervation of the SC
same,axon growth through the lesion site (CT-B tracing),[3]; listed as RAD16-I,axons have extended their processes to the superior colliculus
same,tissue reconnection / repair at the lesion site (histology),[3]; listed as RAD16-I,All of the tissue has repaired itself
same,axon growth through the lesion site (CT-B tracing),[3]; listed as SAP,axons growing through the site where the cut transected the brachium of the superior colliculus
same,tissue reconnection / repair at the lesion site (histology),[3]; listed as SAP,neural tissue reconnected across the site of the lesion
same,self-assembly in CSF,[4],resulted in self-assembly to form a peptide scaffold
